Consider two compounds from US20080286373A1, “Ziprasidone formulations” (priority 2007, published 2008).

Where a name gives a salt, the structure may show the parent alone.

The nature of data set [1]: Solubility of ziprasidone hydrochloride monohydrate in excipients (Table 2). In kind it is physicochemical. Here is the method: Solubility in various excipients that are frequently used to improve solubility was also tested and the results thereof are in Table 2 below.
Data set [2] in a line: Solubility of ziprasidone hydrochloride monohydrate in various solvents (Table 1). Type of data set: physicochemical.
The conditions of data set [3]: Within 45 minutes; pH 7.5, 900 ml aqueous monobasic sodium phosphate with 2w/v % Na dodecyl sulfate, USP 2 paddles 75 rpm; formulation of U.S. Pat. No. 6,150,366, mean particle size <85 microns; cited from earlier work.

In the case of `O=C1Cc2cc(CCN3CCN(c4nsc5ccccc45)CC3)c(Cl)cc2N1` [Ziprasidone HCl monohydrate, ziprasidone hydrochloride monohydrate], the solubility is 500 µg/mL in data set [1] (0.1 N HCl solution, simulated gastric fluid); 300 µg/mL in data set [1] (5% caprolactam in water, aqueous with cosolvent or surfactant or cyclodextrin, 5% caprolactam in solution in water); 1300 µg/mL in data set [1] (20% Lactic acid in PEG 400, organic solvent or mixture); 1000 µg/mL in data set [1] (20% Lutrol in TPGS, organic solvent or mixture); 2900 µg/mL in data set [1] (Benzyl alcohol, organic solvent or mixture); 300 µg/mL in data set [1] (Benzyl benzoate, organic solvent or mixture). The solubility in data set [1] (Ethanol, organic solvent or mixture) came to 400 µg/mL; in data set [1] (Gelucire 44/14, oil or lipid) it was 1000 µg/mL; in data set [1] (Gelucire 50/13, oil or lipid), 1000 µg/mL; in data set [1] (Glacial acetic acid, organic solvent or mixture) it was 2800 µg/mL; in data set [1] (Glycerol, organic solvent or mixture), 1250 µg/mL; in data set [1] (Labrofac (Capric triglyceride PEG-4 ester), oil or lipid), 900 µg/mL. Further, the solubility in data set [1] (Lactic acid (85% strength), organic solvent or mixture) is 10000 µg/mL; in data set [1] (Maisine 35-1 (glycerol monolinoleate), oil or lipid) it was 1000 µg/mL; in data set [1] (N-methyl 2-pyrrolidone, organic solvent or mixture), 10000 µg/mL; in data set [1] (PEG 400, organic solvent or mixture) it was 2500 µg/mL; in data set [1] (PEG 6000, organic solvent or mixture), 2500 µg/mL; in data set [1] (Peceol (glycerol monooleate 40), oil or lipid), 1000 µg/mL. The solubility is 2000 µg/mL in data set [1] (Propylene glycol, organic solvent or mixture); 500 µg/mL in data set [1] (Span 80, organic solvent or mixture); 3000 µg/mL in data set [1] (Tween 20, organic solvent or mixture); 2100 µg/mL in data set [1] (Tween 80, organic solvent or mixture); 30 µg/mL in data set [1] (Water); under 10 µg/mL in data set [1] (aqueous buffer, Phosphate buffer pH 6.8 (without SLS)). In addition, the solubility in data set [2] (solvent ACN) is given as under 1%; in data set [2] (solvent Acetone), under 1%; in data set [2] (solvent Acetone/water), under 1%; in data set [2] (solvent DCM) it was under 1%; in data set [2] (solvent DMF/DMA/DMSO) it was 1.5%; in data set [2] (solvent DMF/water 80/20), under 1%. For the same compound, the solubility in data set [2] (solvent Ethanol) was under 1%; in data set [2] (solvent Isopropanol), under 1%; in data set [2] (solvent Methanol) it was 1.5%; in data set [2] (solvent Methanol/acetic acid 90/10), under 1%; in data set [2] (solvent Methanol/water 60/40) it was under 1%; in data set [2] (solvent Methanol/water 80/20) it was 1.5%. Also, in data set [2] (solvent THF), the solubility is reported as under 1%.

In the case of Ziprasidone, the ziprasidone dissolved in data set [3] is 70%.
